Values after ≈ are worked out from the molar mass of the structure shown. Values joined by “and” are separate entries in the source; they are usually repeats but may differ in a detail not shown here. Equal entries are not always repeated.
How the values were obtained:
[1] = Solubility in PBS at pH 5, pH 6 and pH 7.4; assay type: physicochemical; conditions: for solubility at 4 h: PBS, 37 °C, thermodynamic from solid; for solubility PBS pH 5: PBS pH 5, 37 °C; for solubility PBS pH 5 / solubility PBS pH 6 / solubility PBS pH 7.4: hydrochloride salts of 12, 15, 18, 21; for solubility PBS pH 6: PBS pH 6, 37 °C; for solubility PBS pH 7.4: PBS pH 7.4, 37 °C
[2] = cited from earlier work
Stability in Bovine CSF = assay type: in vitro ADME; conditions: for t1/2 Bovine CSF: 37 °C, 2 mM
Stability = assay type: in vitro ADME, Bovine; conditions: for hydrolysis rate in Bovine serum relative to rate in PBS: times faster in Bovine serum than in PBS; for t1/2 Bovine serum: 37 °C, 2 mM
[3] = ref Song et al. 15; cited from earlier work
[4] = ref Song et al. 15; cited from earlier work; remark: listed apart in the source
Chemical = assay type: physicochemical; conditions: for t1/2 PBS: PBS pH 7.4, 37 °C, 2 mM
TK1 (+) L929 cells = conditions: cited from earlier work; for in vitro uptake in TK1 (+) L929 cells relative to TK1 (−) L929 cells: 24 h incubation in compound containing medium; for retention in cells: incubation continued for 12 h in compound free medium
[5] = system: TK1 (+)- or TK1 (−) L929 tumors; conditions: intratumoral injection, subcutaneous tumors in nude mice; cited from earlier work
intracranial RG2 glioma = conditions: cited from earlier work

Molecule	hydrolysis rate in Bovine serum relative to rate in PBS (Stability)	t1/2 PBS (Chemical) [h]	solubility PBS pH 5 [1]	solubility PBS pH 6 [1]	solubility PBS pH 7.4 [1]	t1/2 Bovine CSF (Stability in Bovine CSF) [h]	t1/2 Bovine serum (Stability) [h]	also measured
CC(C)[C@H](N)C(=O)OCCOCn1cnc2c(=O)[nH]c(N)nc21 [Compound 4, valacyclovir, reference compound]	2.2 times	–	–	–	–	–	–	solubility relative to 12 ([1]; PBS pH 5, 6, 7.4): 1.5–3 times; solubility at 4 h ([1]; pH 5, aqueous buffer): 72.7 ± 0.4 mg/mL (≈ 224 mM); solubility at 4 h ([1]; pH 6, aqueous buffer): 13.4 ± 0.26 mg/mL (≈ 41.4 mM); solubility at 4 h ([1]; pH 7.4, aqueous buffer): 1.91 ± 0.06 mg/mL (≈ 5.89 mM); water solubility relative to parental nucleoside analogue (acyclovir) [2]: about 130 times; half-life at 2 mM (Stability in Bovine CSF; bovine, bovine CSF): 455 ± 7.2 min; half-life at 2 mM (Stability; bovine, bovine serum): 372 ± 10.2 min; half-life for the hydrolysis in human plasma [3]: 5.2 h; half-life for the chemical hydrolysis [4]: 17.15 h; half-life at 2 mM (Chemical; PBS, pH 7.4): 816 ± 29.4 min
3',5'-Di-glycinyl-3-(5-{o-carboran-1-yl}pentan-1-yl)thymidine [Compound 16]	–	0.22 ± 0.03	–	–	–	–	–	–
3'-L-Glutam-5-yl-3-(5-{o-carboran-1-yl}pentan-1-yl)thymidine [Compound 17]	–	26.91 ± 0.71	–	–	–	–	–	–
3',5'-Di-L-valyl-3-(5-{o-carboran-1-yl}pentan-1-yl)thymidine [Compound 13]	–	12.91 ± 0.17	–	–	–	–	–	–
3'-Glycinyl-3-(5-{o-carboran-1-yl}pentan-1-yl)thymidine [Compound 14]	–	1.51 ± 0.11	–	–	–	–	–	–
5'-Glycinyl-3-[5-(2-{2,3-dihydroxyprop-1-yl}-o-carboran-1-yl)pentan-1-yl]thymidine [Compound 21]	1.5 times	2.21 ± 0.15	11.18 ± 0.21 g/L	3.60 ± 0.12 g/L	0.62 ± 0.03 g/L	2.11 ± 0.14	1.51 ± 0.04	–
3',5'-Di-L-glutam-5-yl-3-(5-{o-carboran-1-yl}pentan-1-yl)thymidine [Compound 19]	–	3.42 ± 0.10	–	–	–	–	–	–
5'-L-Valyl-3-(5-{o-carboran-1-yl}pentan-1-yl)thymidine [Compound 12]	1.2 times	25.59 ± 0.61	26.30 ± 0.90 g/L	3.70 ± 0.31 g/L	1.31 ± 0.05 g/L	25.47 ± 0.10	22.21 ± 0.52	solubility relative to compounds 15 and 21 ([1]; PBS pH 5, 6, 7.4): 1–7 times
3-(5-{o-Carboran-1-yl}pentan-1-yl)thymidine [Compound 1]	–	–	0.003–0.005 g/L	0.003–0.005 g/L	0.003–0.005 g/L	–	–	in vitro uptake in TK1 (+) L929 cells relative to TK1 (−) L929 cells (TK1 (+) L929 cells): 5–10; retention in cells (TK1 (+) L929 cells): retained only in the former cell line
5'-L-Glutam-5-yl-3-(5-{o-carboran-1-yl}pentan-1-yl)thymidine [Compound 18]	13.1 times	11.16 ± 0.37	1.13 g/L and 1.16 ± 0.04 g/L	1.13 ± 0.06 g/L	1.77 ± 0.08 g/L	1.85 ± 0.11	0.85 ± 0.12	hydrolysis rate in CSF relative to PBS (Stability in Bovine CSF; times higher in Bovine CSF than in PBS): 6 times
5'-Glycinyl-3-(5-{o-carboran-1-yl}pentan-1-yl)thymidine [Compound 15]	did not change	0.70 ± 0.04	10.99 ± 0.20 g/L	2.06 ± 0.11 g/L	0.19 ± 0.01 g/L	0.96 ± 0.04	0.69 ± 0.02	–
3'-L-Valyl-3-(5-{o-carboran-1-yl}pentan-1-yl)thymidine [Compound 11]	–	29.79 ± 0.42	–	–	–	–	–	–
3-[5-{2-(2,3-dihydroxyprop-1-yl)-o-carboran-1-yl}pentan-1-yl]thymidine [Compound 2]	–	–	0.007–0.01 g/L	0.007–0.01 g/L	0.007–0.01 g/L	–	–	in vitro uptake in TK1 (+) L929 cells relative to TK1 (−) L929 cells (TK1 (+) L929 cells): 5–10; retention in cells (TK1 (+) L929 cells): retained only in the former cell line; boron concentration in TK1 (+) relative to TK1 (−) L929 tumors [5]: ~ 3 times; survival times relative to rats that received BNCT without compound (intracranial RG2 glioma; intracranial injection prior to BNCT, rats with intracranial RG2 glioma): about 2 times; pathologic alterations in rat brains (intracranial RG2 glioma; rat, in vivo): no significant pathologic alterations

Reference: publication PMC3432695 (European journal of medicinal chemistry, 2012)
